Molecular target: T1, CDK2/Cyclin E1 (Homo sapiens, UniProt P24941)
T1 construct: enzyme activity assays utilize full-length human CDK2; GST (N); purchased Carna 04-165; host or cells: baculovirus expression system
Test: CDK2/Cyclin E1 HTRF enzyme activity assay
Type: biochemical
Settings: 1 mM ATP
Method: Example A. CDK2/Cyclin E1 HTRF Enzyme Activity Assay
CDK2/Cyclin E1 enzyme activity assays utilize full-length human CDK2 co-expressed as N-terminal GST-tagged protein with FLAG-Cyclin E1 in a baculovirus expression system (Carna Product Number 04-165). Assays were conducted in white 384-well polystyrene plates in a final reaction volume of 8 μL. CDK2/Cyclin E1 (0.25 nM) was incubated with the compounds of the Examples (40 nL serially diluted in DMSO) in the presence of ATP (50 μM or 1 mM) and 50 nM ULight™-labeled eIF4E-binding protein 1 (THR37/46) peptide (PerkinElmer) in assay buffer (containing 50 mM HEPES pH 7.5, 1 mM EGTA, 10 mM MgCl2, 2 mM DTT, 0.05 mg/mL BSA, and 0.01% Tween 20) for 60 minutes at room temperature. The reactions were stopped by the addition of EDTA and Europium-labeled anti-phospho-4E-BP1 antibody (PerkinElmer), for a final concentration of 15 mM and 1.5 nM, respectively. HTRF signals were read after 1 hour at room temperature on a PHERAstar FS plate reader (BMG Labtech). Data was analyzed with IDBS XLFit and GraphPad Prism 5.0 software using a three or four parameter dose response curve to determine IC50 for each compound.

IC50 [nM] | Structure (SMILES)
≤ 10 | C[C@@H]1CN(S(C)(=O)=O)CC[C@@H]1Nc1nc2c(OCC(F)(F)F)c(-c3cn[nH]c3)ncn2n1 [Example 2, N-((3R,4S)-3-Methyl-1-(methylsulfonyl)piperidin-4-yl)-7-(1H-pyrazol-4-yl)-8-(2,2,2-trifluoroethoxy)-[1,2,4]triazolo[1,5-c]pyrimidin-2-amine]
≤ 10 | C[C@@H]1CN(S(C)(=O)=O)CC[C@@H]1Nc1nc2cnc(-c3cn[nH]c3)c(OCC(F)(F)F)n2n1 [Example 3, N-((3R,4S)-3-Methyl-1-(methylsulfonyl)piperidin-4-yl)-6-(1H-pyrazol-4-yl)-5-(2,2,2-trifluoroethoxy)-[1,2,4]triazolo[1,5-a]pyrazin-2-amine]

Structure (SMILES) | IC50 [nM]
C[C@@H]1CN(S(C)(=O)=O)CC[C@@H]1Nc1nc2c(OC3CCC3)c(-c3cn[nH]c3)ncn2n1 [Example 1, 8-Cyclobutoxy-N-((3R,4S)-3-methyl-1-(methylsulfonyl)piperidin-4-yl)-7-(1H-pyrazol-4-yl)-[1,2,4]triazolo[1,5-c]pyrimidin-2-amine] | ≤ 10
